Converted amounts (≈) assume the structure as drawn. Bridge positions count the residues as written; N and C are the ends. Square brackets hold non-standard residues; d marks the D form. Triazole bridges read from a SMILES are 1,4-linked. Peptide text beside a SMILES is read from it. dLys(N3) = [N-]=[N+]=NCCCC[C@@H](N)C(=O)O; Lys(N3) = [N-]=[N+]=NCCCC[C@H](N)C(=O)O; dPra = C#CC[C@@H](N)C(=O)O; Pra = C#CC[C@H](N)C(=O)O
Tests used:
P. aeruginosa ATCC 27853 = format: cell-based, Pseudomonas aeruginosa
Method: (§1) The antimicrobial activity of peptides 9–26 was assessed against a range of reference bacterial strains such as S. aureus ATCC 25923, Staphylococcus epidermidis ATCC 12228, Bacillus megaterium Bm11, E. coli ATCC 25922, P. aeruginosa ATCC 27853, and A. baumannii ATCC 19606 by the broth microdilution assay to determine the minimal growth inhibitory concentration (MIC, Table 1).[59] First, we evaluated the effects produced by the lactam bridge between Lys and Glu residues placed at different positions along the peptide sequence of reference 9. […] When the i,i+7 cyclization strategy was applied (20–23), a dramatic decrease of bacterial inhibition activity was observed. Specifically, the peptides 20, 22, and 23 only affected the microbial growth of the Gram-positive B. megaterium Bm11, at 12.5 μM. […] Peptide 25, which differs from 9 by the presence of an olefin bridge rather than lactam one, dramatically lost the activity (MIC > 100 μM) vs both Gram-positive and Gram-negative strains.
(§2) The determination of MICs was conducted as previously reported.[61] Aliquots of 50 μL of bacterial culture appropriately diluted were added to each well of a 96-well plate to reach a final cell density of 1 × 10^6 CFU/mL and a final peptide concentration ranging from 100 to 0.78 μM (final volume 100 μL).

E. coli ATCC 25922 = format: cell-based, Escherichia coli
Method: as §1, §2

[1] = system: S. epidermidis ATCC 12228; format: cell-based, Staphylococcus epidermidis
Method: as §1, §2

A. baumannii ATCC 19606 = format: cell-based, Acinetobacter baumannii
Method: as §1, §2

B. megaterium Bm11 = format: cell-based, Bacillus megaterium
Method: as §1, §2

S. aureus ATCC 25923 = format: cell-based, Staphylococcus aureus
Method: as §1, §2

Row | Structure (SMILES) | MIC P. aeruginosa ATCC 27853 (P. aeruginosa ATCC 27853) [µM] | MIC E. coli ATCC 25922 (E. coli ATCC 25922) [µM] | MIC S. epidermidis ATCC 12228 [1] [µM] | MIC A. baumannii ATCC 19606 (A. baumannii ATCC 19606) [µM] | MIC B. megaterium Bm11 (B. megaterium Bm11) [µM] | MIC S. aureus ATCC 25923 (S. aureus ATCC 25923) [µM]
1 | CC(C)C[C@H](NC(=O)[C@@H]1CCC(=O)NCCCC[C@H](NC(=O)[C@H](CCCCN)NC(=O)[C@H](CO)NC(=O)[C@H](Cc2ccccc2)NC(=O)[C@H](Cc2c[nH]c3ccccc23)NC(=O)[C@@H]2CCCN2C(=O)[C@@H](NC(=O)[C@@H](N)Cc2ccccc2)C(C)C)C(=O)N[C@H](CC(C)C)C(=O)NCC(=O)N[C@@H](CCCNC(=N)N)C(=O)N1)C(N)=O [compound 11] (H-FVPWFSKK[dL]GREL-NH2; lactam 8-12) | >100 | >100 | >100 | >100 | 50 (≈ 79.4 µg/mL) | >100
2 | CC[C@H](C)[C@H](NC(=O)[C@H](CCCNC(=N)N)NC(=O)CNC(=O)[C@@H](CC(C)C)NC(=O)[C@@H]1CCC(=O)NCCCC[C@H](NC(=O)[C@@H]2CCCN2C(=O)[C@@H](NC(=O)[C@@H](N)Cc2ccccc2)C(C)C)C(=O)N[C@@H](Cc2ccccc2)C(=O)N[C@@H](CO)C(=O)N[C@@H](CCCCN)C(=O)N1)C(=O)N[C@@H](CC(C)C)C(N)=O [compound 14] (H-FVPKFSKE[dL]GRIL-NH2; lactam 4-8) | >100 | >100 | >100 | >100 | >100 | >100
3 | CC[C@H](C)[C@@H]1NC(=O)[C@H](CCCNC(=N)N)NC(=O)CNC(=O)[C@H](NC(=O)[C@H](Cc2ccccc2)NC(=O)[C@H](CCCCN)NC(=O)[C@H](CO)NC(=O)[C@H](Cc2ccccc2)NC(=O)[C@H](Cc2c[nH]c3ccccc23)NC(=O)[C@@H]2CCCN2C(=O)[C@@H](NC(=O)[C@@H](N)Cc2ccccc2)C(C)C)CCCCNC(=O)CC[C@@H](C(N)=O)NC1=O [compound 10] | >100 | >100 | >100 | >100 | 50 (≈ 81.1 µg/mL) | >100
4 | CC[C@H](C)[C@H](NC(=O)[C@H](CCCNC(=N)N)NC(=O)CNC(=O)[C@@H](CC(C)C)NC(=O)[C@@H]1CCCCn2cc(nn2)C[C@H](NC(=O)[C@@H]2CCCN2C(=O)[C@@H](NC(=O)[C@@H](N)Cc2ccccc2)C(C)C)C(=O)N[C@@H](Cc2ccccc2)C(=O)N[C@@H](CO)C(=O)N[C@@H](CCCCN)C(=O)N1)C(=O)N[C@@H](CC(C)C)C(N)=O [compound 19] (H-FVP[Pra]FSK[Lys(N3)][dL]GRIL-NH2; triazole 4-8) | >100 | >100 | >100 | >100 | 12.5 (≈ 19.1 µg/mL) | >100
5 | CC[C@H](C)[C@H](NC(=O)[C@H](CCCNC(=N)N)NC(=O)CNC(=O)[C@H]1CCC(=O)NCCCC[C@H](NC(=O)[C@H](Cc2c[nH]c3ccccc23)NC(=O)[C@@H]2CCCN2C(=O)[C@@H](NC(=O)[C@@H](N)Cc2ccccc2)C(C)C)C(=O)N[C@@H](CO)C(=O)N[C@@H](CCCCN)C(=O)N[C@@H](Cc2ccccc2)C(=O)N1)C(=O)N[C@@H](CC(C)C)C(N)=O [compound 13] (H-FVPWKSKF[dE]GRIL-NH2; lactam 5-9) | >100 | >100 | >100 | >100 | 100 (≈ 159 µg/mL) | >100

Continued, values first:

Row | MIC P. aeruginosa ATCC 27853 (P. aeruginosa ATCC 27853) [µM] | MIC E. coli ATCC 25922 (E. coli ATCC 25922) [µM] | MIC S. epidermidis ATCC 12228 [1] [µM] | MIC A. baumannii ATCC 19606 (A. baumannii ATCC 19606) [µM] | MIC B. megaterium Bm11 (B. megaterium Bm11) [µM] | MIC S. aureus ATCC 25923 (S. aureus ATCC 25923) [µM] | Structure (SMILES)
6 | >100 | >100 | >100 | >100 | 12.5 (≈ 20.6 µg/mL) | >100 | CC[C@H](C)[C@@H]1NC(=O)[C@H](CCCNC(=N)N)NC(=O)CNC(=O)[C@@H](CC(C)C)NC(=O)[C@H](Cc2ccccc2)NC(=O)[C@H](CCCCN)NC(=O)[C@@H](NC(=O)[C@H](Cc2ccccc2)NC(=O)[C@H](Cc2c[nH]c3ccccc23)NC(=O)[C@@H]2CCCN2C(=O)[C@@H](NC(=O)[C@@H](N)Cc2ccccc2)C(C)C)CCCCNC(=O)CC[C@@H](C(N)=O)NC1=O [compound 20] (H-FVPWFKKF[dL]GRIE-NH2; lactam 6-13)
7 | >100 | 50 (≈ 79.9 µg/mL) | >100 | 25 (≈ 39.9 µg/mL) | 25 (≈ 39.9 µg/mL) | >100 | CC(C)C[C@H](NC(=O)[C@@H]1CCCCn2cc(nn2)C[C@H](NC(=O)[C@H](CCCCN)NC(=O)[C@H](CO)NC(=O)[C@H](Cc2ccccc2)NC(=O)[C@H](Cc2c[nH]c3ccccc23)NC(=O)[C@@H]2CCCN2C(=O)[C@@H](NC(=O)[C@@H](N)Cc2ccccc2)C(C)C)C(=O)N[C@H](CC(C)C)C(=O)NCC(=O)N[C@@H](CCCNC(=N)N)C(=O)N1)C(N)=O [compound 16] (H-FVPWFSK[Pra][dL]GR[Lys(N3)]L-NH2; triazole 8-12)
8 | >100 | >100 | >100 | 100 (≈ 166 µg/mL) | 12.5 (≈ 20.7 µg/mL) | >100 | CC[C@H](C)[C@@H]1NC(=O)[C@H](CCCNC(=N)N)NC(=O)CNC(=O)[C@@H](CC(C)C)NC(=O)[C@H](Cc2ccccc2)NC(=O)[C@H](CCCCN)NC(=O)[C@@H](NC(=O)[C@H](Cc2ccccc2)NC(=O)[C@H](Cc2c[nH]c3ccccc23)NC(=O)[C@@H]2CCCN2C(=O)[C@@H](NC(=O)[C@@H](N)Cc2ccccc2)C(C)C)Cc2cn(nn2)CCCC[C@@H](C(N)=O)NC1=O [compound 22] (H-FVPWF[Pra]KF[dL]GRI[Lys(N3)]-NH2; triazole 6-13)
9 | >100 | >100 | >100 | >100 | 100 (≈ 159 µg/mL) | >100 | CC(C)C[C@H](NC(=O)[C@@H]1CCC(=O)NCCCC[C@H](NC(=O)[C@H](Cc2c[nH]c3ccccc23)NC(=O)[C@@H]2CCCN2C(=O)[C@@H](NC(=O)[C@@H](N)Cc2ccccc2)C(C)C)C(=O)N[C@@H](CO)C(=O)N[C@@H](CCCCN)C(=O)N[C@@H](Cc2ccccc2)C(=O)N[C@H](CC(C)C)C(=O)NCC(=O)N[C@@H](CCCNC(=N)N)C(=O)N1)C(N)=O [compound 21] (H-FVPWKSKF[dL]GREL-NH2; lactam 5-12)
10 | >100 | >100 | >100 | 100 (≈ 163 µg/mL) | 25 (≈ 40.8 µg/mL) | >100 | CC[C@H](C)[C@@H]1NC(=O)[C@H](CCCNC(=N)N)NC(=O)CNC(=O)[C@H](NC(=O)[C@H](Cc2ccccc2)NC(=O)[C@H](CCCCN)NC(=O)[C@H](CO)NC(=O)[C@H](Cc2ccccc2)NC(=O)[C@H](Cc2c[nH]c3ccccc23)NC(=O)[C@@H]2CCCN2C(=O)[C@@H](NC(=O)[C@@H](N)Cc2ccccc2)C(C)C)Cc2cn(nn2)CCCC[C@@H](C(N)=O)NC1=O [compound 15] (H-FVPWFSKF[dPra]GRI[Lys(N3)]-NH2; triazole 9-13)
11 | >100 | 100 (≈ 160 µg/mL) | >100 | 100 (≈ 160 µg/mL) | 6.25 (≈ 9.99 µg/mL) | >100 | CC[C@H](C)[C@H](NC(=O)[C@H](CCCNC(=N)N)NC(=O)CNC(=O)[C@H]1CCCCn2cc(nn2)C[C@H](NC(=O)[C@H](Cc2c[nH]c3ccccc23)NC(=O)[C@@H]2CCCN2C(=O)[C@@H](NC(=O)[C@@H](N)Cc2ccccc2)C(C)C)C(=O)N[C@@H](CO)C(=O)N[C@@H](CCCCN)C(=O)N[C@@H](Cc2ccccc2)C(=O)N1)C(=O)N[C@@H](CC(C)C)C(N)=O [compound 18] (H-FVPW[Pra]SKF[dLys(N3)]GRIL-NH2; triazole 5-9)

— publication PMC8389922, “First-in-Class Cyclic Temporin L Analogue: Design, Synthesis, and Antimicrobial Assessment” (Journal of Medicinal Chemistry, 2021)
